# Test results as given in patent US7855174B2 (priority 2007, dated 2010).
# Where two headings read alike, the source gives them in different places.
# Tests used:
# rat mesenteric arteries = assay: tissue or blood
# MLC = system: MLC; design: species or system rat
smiles,measurement,setting,value
"NC[C@H](O)c1ccc(O)c(O)c1 [NE, norepinephrine]",EC50,rat mesenteric arteries; read-out: EC50 of concentration-contraction relationship,1100 nM
same,EC50,rat mesenteric arteries; read-out: apparent EC50 for NE (contraction),34 nM
same,EC50,rat mesenteric arteries; read-out: approximate EC50 in isolated vessels,~1000 nM
same,change of Ser19 pMLC and total pMLC with concentration,MLC,increases in both total pMLC and Ser19 pMLC
